For series [1], the target named is T1, Protein deacetylase HDAC6 (Homo sapiens, UniProt Q9UBN7).
T1 sequence (Q9UBN7 whole entry): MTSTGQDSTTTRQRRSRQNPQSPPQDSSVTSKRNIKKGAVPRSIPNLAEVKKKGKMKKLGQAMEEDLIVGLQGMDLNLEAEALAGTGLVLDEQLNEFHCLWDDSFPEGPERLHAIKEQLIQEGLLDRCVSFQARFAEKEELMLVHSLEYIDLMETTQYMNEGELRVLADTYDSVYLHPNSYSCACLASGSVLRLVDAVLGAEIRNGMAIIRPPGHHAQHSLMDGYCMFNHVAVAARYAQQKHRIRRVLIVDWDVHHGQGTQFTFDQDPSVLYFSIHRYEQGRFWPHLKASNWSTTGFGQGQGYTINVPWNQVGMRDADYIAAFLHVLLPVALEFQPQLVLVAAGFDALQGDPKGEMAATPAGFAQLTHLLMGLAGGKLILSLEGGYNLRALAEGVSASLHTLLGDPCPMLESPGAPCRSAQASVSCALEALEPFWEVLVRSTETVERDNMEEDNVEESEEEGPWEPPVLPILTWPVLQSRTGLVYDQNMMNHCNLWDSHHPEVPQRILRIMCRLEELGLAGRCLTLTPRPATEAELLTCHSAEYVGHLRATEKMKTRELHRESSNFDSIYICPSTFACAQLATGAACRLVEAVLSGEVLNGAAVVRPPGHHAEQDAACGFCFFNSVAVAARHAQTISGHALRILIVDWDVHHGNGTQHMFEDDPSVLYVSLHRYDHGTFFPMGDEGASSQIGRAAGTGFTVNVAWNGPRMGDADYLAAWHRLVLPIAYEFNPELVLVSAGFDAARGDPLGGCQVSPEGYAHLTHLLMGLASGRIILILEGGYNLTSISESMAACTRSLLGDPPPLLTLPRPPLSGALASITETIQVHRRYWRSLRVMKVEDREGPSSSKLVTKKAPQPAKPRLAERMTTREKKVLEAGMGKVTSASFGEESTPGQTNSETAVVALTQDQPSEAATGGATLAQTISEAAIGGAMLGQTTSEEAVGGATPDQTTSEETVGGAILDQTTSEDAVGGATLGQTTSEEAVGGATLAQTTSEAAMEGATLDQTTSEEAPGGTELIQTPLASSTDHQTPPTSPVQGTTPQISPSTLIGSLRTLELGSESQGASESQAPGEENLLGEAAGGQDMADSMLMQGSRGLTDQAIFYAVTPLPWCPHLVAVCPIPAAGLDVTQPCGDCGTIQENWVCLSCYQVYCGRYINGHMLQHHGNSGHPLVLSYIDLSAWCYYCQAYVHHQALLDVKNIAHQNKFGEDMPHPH
The experiment in a line: Inhibition of human recombinant HDAC6 using RHKKAc as fluorogenic substrate incubated for 90 mins by fluorescence based analysis.

A further series concerns the target Histone deacetylase 4 (Homo sapiens, UniProt P56524).
The next series deals with T2, Histone deacetylase 8 (Homo sapiens, UniProt Q9BY41).
T2 sequence (Q9BY41 whole entry): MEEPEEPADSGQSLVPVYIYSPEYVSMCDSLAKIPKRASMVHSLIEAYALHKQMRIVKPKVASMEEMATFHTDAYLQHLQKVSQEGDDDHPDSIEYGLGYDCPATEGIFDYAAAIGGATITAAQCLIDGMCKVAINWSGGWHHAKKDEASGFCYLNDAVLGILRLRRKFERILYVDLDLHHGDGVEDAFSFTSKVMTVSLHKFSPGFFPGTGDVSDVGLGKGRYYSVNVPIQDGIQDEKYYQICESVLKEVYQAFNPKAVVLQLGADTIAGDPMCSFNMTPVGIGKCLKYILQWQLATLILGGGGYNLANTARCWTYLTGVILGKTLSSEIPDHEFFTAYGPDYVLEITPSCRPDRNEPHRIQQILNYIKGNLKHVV

In series [2] the target is Histone deacetylase 3/Nuclear receptor corepressor 2 (HDAC3/NCoR2) (Homo sapiens, UniProt O15379). Briefly: Inhibition of human recombinant Human HDAC3/NCOR2 using RHKKAc as fluorogenic substrate incubated for 90 mins by fluorescence based analysis. It counts as protein-complex assay.
The next series has as its target T3, Histone deacetylase 11 (Homo sapiens, UniProt Q96DB2).
T3 sequence (Q96DB2 whole entry): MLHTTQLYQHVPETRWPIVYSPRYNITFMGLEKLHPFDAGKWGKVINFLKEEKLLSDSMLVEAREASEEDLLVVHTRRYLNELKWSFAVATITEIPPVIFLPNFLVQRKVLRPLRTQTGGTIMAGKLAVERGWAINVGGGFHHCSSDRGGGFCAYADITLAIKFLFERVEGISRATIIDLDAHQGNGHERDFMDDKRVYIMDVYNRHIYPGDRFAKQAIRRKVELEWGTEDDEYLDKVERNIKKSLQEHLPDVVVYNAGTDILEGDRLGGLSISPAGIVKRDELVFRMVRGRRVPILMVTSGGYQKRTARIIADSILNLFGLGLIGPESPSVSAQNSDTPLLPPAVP

The next series has as its target Histone deacetylase 1 (Homo sapiens, UniProt Q13547).
Another series deals with HPBALL. Briefly: Antiproliferative activity against human HPBALL cells assessed as inhibition of cell growth incubated for 72 hrs by celltiter-glo assay. It counts as functional, cell-based.
For another series, the system named is K562. Briefly: cells. Type of series: functional, cell-based. Particulars: Homo sapiens, K562, 72 h.
The subject of the next series is HL-60. The experiment in a line: cells. Particulars: Homo sapiens, HL-60, 72 h.
Series [3] is described as follows: Ratio of drug concentration in human blood to plasma. Type of series: ADME, cell-free.
Series [4] in a line: Metabolic stability in human liver microsomes assessed as half life measured upto 60 mins in presence of NADPH regenerating system LC-MS analysis.
Series [5] is described as follows: AUClast in mouse at 50 mg/kg, po by LC/MS/MS analysis. Particulars: in vivo.
A short description of series [6]: Half life in mouse at 50 mg/kg, po by LC/MS/MS analysis. Particulars: in vivo.
Series [7] is described as follows: Tmax in Balb/c mouse at 50 mg/kg, po measured upto 6 hrs by LC-MS/MS analysis. It counts as ADME, organism-based. Particulars: in vivo.
The nature of series [8]: Half life in Balb/c mouse at 50 mg/kg, po measured upto 6 hrs by LC-MS/MS analysis. The settings on record: in vivo.
The nature of another series: in vivo. Particulars: Balb/c, mouse, po, 50 mg/kg.

Structures are written as SMILES.

Sequence of Histone deacetylase 4 (P56524 whole entry): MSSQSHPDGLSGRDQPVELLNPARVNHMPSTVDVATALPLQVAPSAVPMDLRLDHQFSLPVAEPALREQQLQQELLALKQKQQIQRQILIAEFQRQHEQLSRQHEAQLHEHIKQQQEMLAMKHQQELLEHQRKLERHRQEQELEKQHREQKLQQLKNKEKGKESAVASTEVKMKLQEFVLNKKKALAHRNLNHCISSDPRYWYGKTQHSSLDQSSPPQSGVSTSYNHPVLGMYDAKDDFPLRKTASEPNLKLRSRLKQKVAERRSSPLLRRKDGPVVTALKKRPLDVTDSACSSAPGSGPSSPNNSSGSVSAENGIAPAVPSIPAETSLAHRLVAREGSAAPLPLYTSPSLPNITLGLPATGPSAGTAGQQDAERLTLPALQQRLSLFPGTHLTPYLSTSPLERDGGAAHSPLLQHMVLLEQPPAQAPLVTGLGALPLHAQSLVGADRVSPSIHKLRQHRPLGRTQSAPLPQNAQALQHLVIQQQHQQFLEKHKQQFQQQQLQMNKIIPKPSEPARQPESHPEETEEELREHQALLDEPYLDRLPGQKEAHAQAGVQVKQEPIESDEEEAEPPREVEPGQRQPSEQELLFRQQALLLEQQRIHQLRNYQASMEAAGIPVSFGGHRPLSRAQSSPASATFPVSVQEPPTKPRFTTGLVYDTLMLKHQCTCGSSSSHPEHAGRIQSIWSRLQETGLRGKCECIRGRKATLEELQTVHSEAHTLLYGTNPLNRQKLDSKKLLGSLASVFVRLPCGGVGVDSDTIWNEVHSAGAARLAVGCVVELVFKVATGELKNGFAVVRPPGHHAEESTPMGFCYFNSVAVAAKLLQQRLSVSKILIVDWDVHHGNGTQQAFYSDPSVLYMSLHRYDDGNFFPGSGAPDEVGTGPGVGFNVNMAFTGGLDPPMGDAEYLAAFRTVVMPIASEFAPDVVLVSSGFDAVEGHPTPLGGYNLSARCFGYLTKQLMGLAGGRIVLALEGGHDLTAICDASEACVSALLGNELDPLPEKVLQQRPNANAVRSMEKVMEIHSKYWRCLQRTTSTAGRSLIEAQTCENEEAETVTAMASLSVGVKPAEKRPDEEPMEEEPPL
Sequence of Histone deacetylase 1 (Q13547 whole entry): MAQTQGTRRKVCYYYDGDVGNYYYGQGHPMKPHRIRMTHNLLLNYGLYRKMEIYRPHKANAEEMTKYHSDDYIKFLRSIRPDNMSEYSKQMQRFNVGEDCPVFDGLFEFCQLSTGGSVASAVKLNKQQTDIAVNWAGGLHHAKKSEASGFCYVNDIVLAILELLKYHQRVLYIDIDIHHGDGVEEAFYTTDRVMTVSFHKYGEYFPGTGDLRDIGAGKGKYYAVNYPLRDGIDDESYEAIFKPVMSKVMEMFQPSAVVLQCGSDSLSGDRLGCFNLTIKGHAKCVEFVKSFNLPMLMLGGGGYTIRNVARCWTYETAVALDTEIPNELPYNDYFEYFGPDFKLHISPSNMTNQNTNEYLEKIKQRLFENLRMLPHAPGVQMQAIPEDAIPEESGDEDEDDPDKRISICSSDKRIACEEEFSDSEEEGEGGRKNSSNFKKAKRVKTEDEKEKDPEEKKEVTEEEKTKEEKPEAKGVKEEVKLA
Sequence of Histone deacetylase 3/Nuclear receptor corepressor 2 (HDAC3/NCoR2) (O15379 whole entry): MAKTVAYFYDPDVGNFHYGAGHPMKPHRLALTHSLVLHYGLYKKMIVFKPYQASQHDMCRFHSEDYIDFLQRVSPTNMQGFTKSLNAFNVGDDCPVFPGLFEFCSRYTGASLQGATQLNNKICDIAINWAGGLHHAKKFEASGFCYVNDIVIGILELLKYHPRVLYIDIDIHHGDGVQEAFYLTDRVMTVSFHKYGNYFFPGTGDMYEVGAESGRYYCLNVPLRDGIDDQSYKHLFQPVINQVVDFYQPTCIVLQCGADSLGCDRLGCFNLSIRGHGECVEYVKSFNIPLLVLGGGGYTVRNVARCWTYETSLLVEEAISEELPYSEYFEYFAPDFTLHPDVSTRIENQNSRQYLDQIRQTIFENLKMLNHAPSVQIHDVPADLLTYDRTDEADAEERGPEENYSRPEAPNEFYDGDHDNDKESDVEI
Sequence of Histone deacetylase 3/Nuclear receptor corepressor 2 (HDAC3/NCoR2) (Q9Y618 whole entry, further chain): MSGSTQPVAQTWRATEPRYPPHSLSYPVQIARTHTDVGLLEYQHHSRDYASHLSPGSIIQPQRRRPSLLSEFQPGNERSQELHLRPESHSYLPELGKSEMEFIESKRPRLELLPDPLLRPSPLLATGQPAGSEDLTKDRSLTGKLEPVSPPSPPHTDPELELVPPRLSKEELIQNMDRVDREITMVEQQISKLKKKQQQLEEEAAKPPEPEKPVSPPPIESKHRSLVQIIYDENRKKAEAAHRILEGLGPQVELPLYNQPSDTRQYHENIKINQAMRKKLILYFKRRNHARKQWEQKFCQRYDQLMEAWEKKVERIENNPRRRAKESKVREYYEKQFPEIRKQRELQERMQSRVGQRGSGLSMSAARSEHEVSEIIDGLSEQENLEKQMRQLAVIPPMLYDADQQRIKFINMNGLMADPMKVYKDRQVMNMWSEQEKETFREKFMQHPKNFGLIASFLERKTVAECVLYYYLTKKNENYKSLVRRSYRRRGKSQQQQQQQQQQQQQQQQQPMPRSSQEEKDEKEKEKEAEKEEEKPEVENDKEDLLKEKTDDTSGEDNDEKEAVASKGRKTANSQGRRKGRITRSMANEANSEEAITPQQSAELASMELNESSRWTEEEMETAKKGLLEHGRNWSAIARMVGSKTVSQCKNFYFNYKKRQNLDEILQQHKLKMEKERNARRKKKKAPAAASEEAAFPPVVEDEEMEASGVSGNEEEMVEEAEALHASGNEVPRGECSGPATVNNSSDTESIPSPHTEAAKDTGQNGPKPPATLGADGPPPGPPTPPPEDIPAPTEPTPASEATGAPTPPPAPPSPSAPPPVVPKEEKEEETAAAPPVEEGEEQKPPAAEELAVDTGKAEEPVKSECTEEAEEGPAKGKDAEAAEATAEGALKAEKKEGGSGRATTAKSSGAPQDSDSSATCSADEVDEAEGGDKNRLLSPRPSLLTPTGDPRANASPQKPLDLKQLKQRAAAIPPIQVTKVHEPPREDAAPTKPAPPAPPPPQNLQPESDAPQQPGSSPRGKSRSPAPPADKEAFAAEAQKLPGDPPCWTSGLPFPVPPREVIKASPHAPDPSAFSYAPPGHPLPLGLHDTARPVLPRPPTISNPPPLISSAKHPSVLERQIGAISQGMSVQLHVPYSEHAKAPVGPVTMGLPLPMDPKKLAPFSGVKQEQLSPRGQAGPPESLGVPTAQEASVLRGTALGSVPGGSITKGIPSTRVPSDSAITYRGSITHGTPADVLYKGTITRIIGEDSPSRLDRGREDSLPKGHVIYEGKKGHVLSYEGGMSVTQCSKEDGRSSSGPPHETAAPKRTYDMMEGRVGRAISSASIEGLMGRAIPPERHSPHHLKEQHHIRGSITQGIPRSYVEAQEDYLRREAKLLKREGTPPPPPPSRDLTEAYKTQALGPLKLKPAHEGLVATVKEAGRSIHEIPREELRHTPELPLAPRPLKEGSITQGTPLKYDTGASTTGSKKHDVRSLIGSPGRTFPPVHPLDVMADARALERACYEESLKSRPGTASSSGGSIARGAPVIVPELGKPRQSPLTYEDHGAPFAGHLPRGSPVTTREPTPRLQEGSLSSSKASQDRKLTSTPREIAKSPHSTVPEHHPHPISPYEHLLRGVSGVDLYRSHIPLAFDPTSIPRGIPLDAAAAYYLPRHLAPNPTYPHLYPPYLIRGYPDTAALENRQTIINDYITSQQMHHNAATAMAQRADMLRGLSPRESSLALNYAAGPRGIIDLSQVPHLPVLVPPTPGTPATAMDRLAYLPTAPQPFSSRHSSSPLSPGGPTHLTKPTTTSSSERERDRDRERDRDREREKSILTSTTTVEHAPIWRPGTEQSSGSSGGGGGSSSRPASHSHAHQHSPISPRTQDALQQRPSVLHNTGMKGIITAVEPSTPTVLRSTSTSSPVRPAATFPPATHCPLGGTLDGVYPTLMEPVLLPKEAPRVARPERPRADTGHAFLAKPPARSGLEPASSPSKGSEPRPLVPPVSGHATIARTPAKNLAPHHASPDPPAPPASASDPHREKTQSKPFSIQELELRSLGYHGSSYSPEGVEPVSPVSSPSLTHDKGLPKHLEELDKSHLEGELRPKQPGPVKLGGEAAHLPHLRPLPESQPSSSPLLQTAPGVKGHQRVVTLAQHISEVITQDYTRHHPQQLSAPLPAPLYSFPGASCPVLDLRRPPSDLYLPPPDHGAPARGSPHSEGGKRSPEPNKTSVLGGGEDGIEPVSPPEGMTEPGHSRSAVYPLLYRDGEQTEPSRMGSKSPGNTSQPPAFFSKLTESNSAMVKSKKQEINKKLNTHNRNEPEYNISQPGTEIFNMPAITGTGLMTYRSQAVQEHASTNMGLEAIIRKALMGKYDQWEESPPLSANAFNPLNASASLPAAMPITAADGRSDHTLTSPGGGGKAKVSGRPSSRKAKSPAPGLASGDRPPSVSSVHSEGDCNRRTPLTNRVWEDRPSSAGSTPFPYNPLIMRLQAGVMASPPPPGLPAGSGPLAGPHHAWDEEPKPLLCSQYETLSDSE
Description for Histone deacetylase 4: Inhibition of human recombinant HDAC4 using Boc-Lys(trifluoroacetyl)-AMC) as fluorogenic substrate incubated for 90 mins by fluorescence based analysis
Description for Histone deacetylase 8: Inhibition of human recombinant HDAC8 using RHKAcKAc as fluorogenic substrate incubated for 90 mins by fluorescence based analysis

On to `O=C(CCCCCONC(=O)c1nc(-c2ccc(C(F)(F)F)cc2)cs1)NO`, for which the IC50 in [1] was 108 nM; at Histone deacetylase 4, above 100 µM; on Histone deacetylase 8, 4.86 µM.

For `COc1ccccc1-c1csc(C(=O)NOCCCCCC(=O)NO)n1`, the values for the IC50 (in series [1]; on Histone deacetylase 4; against Histone deacetylase 8) were 26 nM, above 100 µM and 2.16 µM, respectively.

Take `O=C(CCCCCONC(=O)c1nc(-c2ccc(F)cc2)cs1)NO`: the IC50 in series [1] is 45 nM; against Histone deacetylase 4, above 100 µM; against Histone deacetylase 8, 6.38 µM.

For the compound `O=C(CCCCCONC(=O)c1nc(-c2ccc(N3CCCC3)cc2)cs1)NO`, the IC50 in series [1] is 64 nM; in series [2], 48 nM; at Histone deacetylase 11, 36 µM; against Histone deacetylase 4 it was above 100 µM; against Histone deacetylase 8, 4.8 µM; against Histone deacetylase 1, 12 nM.

As for `O=C(CCCCCONC(=O)c1nc(-c2ccccc2F)cs1)NO`, the values for the IC50 (in series [1]; at Histone deacetylase 4; against Histone deacetylase 8) were 51 nM, above 100 µM and 1.29 µM, respectively.

For `O=C(CCCCCONC(=O)c1nc(-c2cc3ccccc3o2)cs1)NO`, the IC50 in series [1] is 30 nM; against Histone deacetylase 4, above 100 µM; on Histone deacetylase 8, 3.68 µM.

As to `O=C(CCCCCONC(=O)c1nc(-c2cccc(F)c2)cs1)NO`, the IC50 was 47 nM in series [1], above 100 µM against Histone deacetylase 4 and 2.32 µM against Histone deacetylase 8.

For `COc1cccc(-c2csc(C(=O)NOCCCCCC(=O)NO)n2)c1`, the IC50 is 26 nM in [1], above 100 µM at Histone deacetylase 4 and 5.2 µM against Histone deacetylase 8.

Turning to `Cc1ccc(-c2csc(C(=O)NOCCCCCC(=O)NO)n2)cc1`, the IC50 was 64 nM in [1], above 100 µM against Histone deacetylase 4 and 7.01 µM at Histone deacetylase 8.

Consider `O=C(CCCCCONC(=O)c1nc(-c2ccsc2)cs1)NO`, for which the figures for the IC50 (in series [1]; at Histone deacetylase 4; on Histone deacetylase 8) were 49 nM, above 100 µM and 5.41 µM, respectively.

Turning to `COc1ccc(-c2csc(C(=O)NOCCCCCC(=O)NO)n2)cc1`, the IC50 in [1] was 38 nM; in series [2] it was 13 nM; against Histone deacetylase 11, 26 µM; on Histone deacetylase 4, above 100 µM; against Histone deacetylase 8 it was 5.75 µM; at Histone deacetylase 1, 40 nM.

For `O=C(CCCCCONC(=O)c1nc(-c2ccccc2)cs1)NO`, the IC50 in series [1] was 75 nM; on Histone deacetylase 4 it was above 100 µM; on Histone deacetylase 8, 4.01 µM.

Consider `O=C(CCCCCONC(=O)c1nc(-c2cccs2)cs1)NO`, for which the IC50 was 81 nM in series [1], above 100 µM against Histone deacetylase 4 and 2.51 µM on Histone deacetylase 8.

Regarding `O=C(/C=C/c1cccc(S(=O)(=O)Nc2ccccc2)c1)NO` [BELINOSTAT], the IC50 with HPBALL came out at 269 nM; in the series on K562, 218 nM; in the series on HL-60, 158 nM.

As for `COc1ccccc1OCCNCC(O)COc1cccc2[nH]c3ccccc3c12` (configuration not stated) [CARVEDILOL], in [3], the blood plasma ratio worked out at 0.76.

Turning to `O=C(CCCCCCNC(=O)c1cnc(N(c2ccccc2)c2ccccc2)nc1)NO` [RICOLINOSTAT], the IC50 with HPBALL stood at 2580 nM; in the series with K562, 2930 nM; in the series with HL-60 it was 2190 nM.

Consider `CC(=O)Nc1ccc(C(=O)Nc2ccccc2N)cc1` [TACEDINALINE], for which the figures for the IC50 in the series on HPBALL, in the series on K562 and in the series on HL-60 were 4700 nM, 5330 nM and 1580 nM, respectively.

On to `O=C(CCCCCCC(=O)Nc1ccccc1)NO` [VORINOSTAT], for which, in the series with HPBALL, the IC50 was determined as 824 nM. The half-life at 1 h in [4] came to 35.9 min. The compound also returned an AUC(0-t) in series [5] of 619 ng·h/mL. The half-life in [6] was 45 min. In addition, the Tmax in [7] came to 4.8 min. Also, the half-life at 6 h in [8] was 48 min. The compound also yielded an AUC(0-t) at 6 h in “in vivo” of 347 ng·h/mL.

For the origin of these results see ChEMBL document CHEMBL6083289, “Deciphering the Therapeutic Potential of Novel Pentyloxyamide-Based Class I, IIb HDAC Inhibitors against Therapy-Resistant Leukemia” (J Med Chem, 2024).
